Measurements published in publication PMC5622171 (Nature Communications, 2017).

What was measured:
Assay in all cases: KINOMEscan kinase profiling
Assay type in all cases: binding
[1] = target: T1, MYLK2 (Homo sapiens, UniProt Q9H1R3); conditions: read-out: %Inhibition by 10 μM SPA70
T1 construct: purchased DiscoverX (Ambit Biosciences) KINOMEscan
Method in brief: (§1)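 KINOMEscan profiling followed a published protocol. Kinases whose inhibition exceeded a set cut-off were then tested in a dilution series beginning at 30 µM.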

[2] = target: T2, PRKD1 (Homo sapiens, UniProt Q15139); conditions: read-out: %Inhibition by 10 μM SPA70
T2 construct: purchased DiscoverX (Ambit Biosciences) KINOMEscan
Method in brief: as §1

[3] = target: T3, TGFBR1 (Homo sapiens, UniProt P36897); conditions: read-out: %Inhibition by 10 μM SPA70
T3 construct: purchased DiscoverX (Ambit Biosciences) KINOMEscan
Method in brief: as §1

[4] = target: T4, p38-gamma (Homo sapiens, UniProt P53778); conditions: read-out: %Inhibition by 10 μM SPA70
T4 construct: purchased DiscoverX (Ambit Biosciences) KINOMEscan
Method in brief: as §1

[5] = target: T5, ERK3 (Homo sapiens, UniProt Q16659); conditions: read-out: %Inhibition by 10 μM SPA70
T5 construct: purchased DiscoverX (Ambit Biosciences) KINOMEscan
Method in brief: as §1

[6] = target: T6, GSK3B (Homo sapiens, UniProt P49841)
T6 construct: purchased DiscoverX (Ambit Biosciences) KINOMEscan
Method in brief: as §1

[7] = target: T7, LIMK2 (Homo sapiens, UniProt P53671); conditions: read-out: %Inhibition by 10 μM SPA70
T7 construct: purchased DiscoverX (Ambit Biosciences) KINOMEscan
Method in brief: as §1

[8] = target: T8, AAK1 (Homo sapiens, UniProt Q2M2I8); conditions: read-out: %Inhibition by 10 μM SPA70
T8 construct: purchased DiscoverX (Ambit Biosciences) KINOMEscan
Method in brief: as §1

[9] = target: T9, BMPR2 (Homo sapiens, UniProt Q13873)
T9 construct: purchased DiscoverX (Ambit Biosciences) KINOMEscan
Method in brief: as §1

[10] = target: T10, HPK1 (Homo sapiens, UniProt Q92918); conditions: read-out: %Inhibition by 10 μM SPA70
T10 construct: purchased DiscoverX (Ambit Biosciences) KINOMEscan
Method in brief: as §1

[11] = target: T11, CDK8 (Homo sapiens, UniProt P49336)
T11 construct: purchased DiscoverX (Ambit Biosciences) KINOMEscan
Method in brief: as §1

[12] = target: T12, PRP4 (Homo sapiens, UniProt Q13523); conditions: read-out: %Inhibition by 10 μM SPA70
T12 construct: purchased DiscoverX (Ambit Biosciences) KINOMEscan
Method in brief: as §1

[13] = target: T13, MAP4K5 (Homo sapiens, UniProt Q9Y4K4); conditions: read-out: %Inhibition by 10 μM SPA70
T13 construct: purchased DiscoverX (Ambit Biosciences) KINOMEscan
Method in brief: as §1

[14] = target: T14, PRKCD (Homo sapiens, UniProt Q05655); conditions: read-out: %Inhibition by 10 μM SPA70
T14 construct: purchased DiscoverX (Ambit Biosciences) KINOMEscan
Method in brief: as §1

[15] = target: T15, CAMK2A (Homo sapiens, UniProt Q9UQM7); conditions: read-out: %Inhibition by 10 μM SPA70
T15 construct: purchased DiscoverX (Ambit Biosciences) KINOMEscan
Method in brief: as §1

[16] = target: T16, MST1 (Homo sapiens, UniProt Q13043)
T16 construct: purchased DiscoverX (Ambit Biosciences) KINOMEscan
Method in brief: as §1

[17] = target: T17, PIM2 (Homo sapiens, UniProt Q9P1W9); conditions: read-out: %Inhibition by 10 μM SPA70
T17 construct: purchased DiscoverX (Ambit Biosciences) KINOMEscan
Method in brief: as §1

[18] = target: T18, MARK3 (Homo sapiens, UniProt P27448); conditions: read-out: %Inhibition by 10 μM SPA70
T18 construct: purchased DiscoverX (Ambit Biosciences) KINOMEscan
Method in brief: as §1

[19] = target: T19, IRAK4 (Homo sapiens, UniProt Q9NWZ3)
T19 construct: purchased DiscoverX (Ambit Biosciences) KINOMEscan
Method in brief: as §1

[20] = target: T20, PKN2 (Homo sapiens, UniProt Q16513); conditions: read-out: %Inhibition by 10 μM SPA70
T20 construct: purchased DiscoverX (Ambit Biosciences) KINOMEscan
Method in brief: as §1

[21] = target: T21, JNK3 (Homo sapiens, UniProt P53779)
T21 construct: purchased DiscoverX (Ambit Biosciences) KINOMEscan
Method in brief: as §1

[22] = target: T22, LYN (Homo sapiens, UniProt P07948); conditions: read-out: %Inhibition by 10 μM SPA70
T22 construct: purchased DiscoverX (Ambit Biosciences) KINOMEscan
Method in brief: as §1

[23] = target: T23, PAK2 (Homo sapiens, UniProt Q13177); conditions: read-out: %Inhibition by 10 μM SPA70
T23 construct: purchased DiscoverX (Ambit Biosciences) KINOMEscan
Method in brief: as §1

[24] = target: T24, PIP5K2B (Homo sapiens, UniProt P78356); conditions: read-out: %Inhibition by 10 μM SPA70
T24 construct: purchased DiscoverX (Ambit Biosciences) KINOMEscan
Method in brief: as §1

[25] = target: T25, PIP5K1A (Homo sapiens, UniProt Q99755); conditions: read-out: %Inhibition by 10 μM SPA70
T25 construct: purchased DiscoverX (Ambit Biosciences) KINOMEscan
Method in brief: as §1

[26] = target: T26, MYLK4 (Homo sapiens, UniProt Q86YV6); conditions: read-out: %Inhibition by 10 μM SPA70
T26 construct: purchased DiscoverX (Ambit Biosciences) KINOMEscan
Method in brief: as §1

[27] = target: T27, SRPK2 (Homo sapiens, UniProt P78362); conditions: read-out: %Inhibition by 10 μM SPA70
T27 construct: purchased DiscoverX (Ambit Biosciences) KINOMEscan
Method in brief: as §1

[28] = target: T28, CSF1R (Homo sapiens, UniProt P07333)
T28 construct: purchased Ambit Biosciences, now part of DiscoveryX
Method in brief: as §1

[29] = target: T29, ERK8 (Homo sapiens, UniProt Q8TD08); conditions: read-out: %Inhibition by 10 μM SPA70
T29 construct: purchased DiscoverX (Ambit Biosciences) KINOMEscan
Method in brief: as §1

[30] = target: T30, PFTK1 (Homo sapiens, UniProt O94921)
T30 construct: purchased DiscoverX (Ambit Biosciences) KINOMEscan
Method in brief: as §1

[31] = target: T31, CAMK1 (Homo sapiens, UniProt Q14012); conditions: read-out: %Inhibition by 10 μM SPA70
T31 construct: purchased DiscoverX (Ambit Biosciences) KINOMEscan
Method in brief: as §1

[32] = target: T32, IKK-alpha (Homo sapiens, UniProt O15111); conditions: read-out: %Inhibition by 10 μM SPA70
T32 construct: purchased DiscoverX (Ambit Biosciences) KINOMEscan
Method in brief: as §1

[33] = target: T33, PDGFRB (Homo sapiens, UniProt P09619); conditions: read-out: %Inhibition by 10 μM SPA70
T33 construct: purchased DiscoverX (Ambit Biosciences) KINOMEscan
Method in brief: as §1

[34] = target: T34, IRAK1 (Homo sapiens, UniProt P51617); conditions: read-out: %Inhibition by 10 μM SPA70
T34 construct: purchased DiscoverX (Ambit Biosciences) KINOMEscan
Method in brief: as §1

[35] = target: T35, NEK7 (Homo sapiens, UniProt Q8TDX7); conditions: read-out: %Inhibition by 10 μM SPA70
T35 construct: purchased DiscoverX (Ambit Biosciences) KINOMEscan
Method in brief: as §1

[36] = target: T36, FGR (Homo sapiens, UniProt P09769); conditions: read-out: %Inhibition by 10 μM SPA70
T36 construct: purchased DiscoverX (Ambit Biosciences) KINOMEscan
Method in brief: as §1

[37] = target: T37, ICK (Homo sapiens, UniProt Q9UPZ9); conditions: read-out: %Inhibition by 10 μM SPA70
T37 construct: purchased DiscoverX (Ambit Biosciences) KINOMEscan
Method in brief: as §1

[38] = target: T38, LZK (Homo sapiens, UniProt O43283)
T38 construct: purchased DiscoverX (Ambit Biosciences) KINOMEscan
Method in brief: as §1

[39] = target: T39, NDR1 (Homo sapiens, UniProt Q15208); conditions: read-out: %Inhibition by 10 μM SPA70
T39 construct: purchased DiscoverX (Ambit Biosciences) KINOMEscan
Method in brief: as §1

[40] = target: T40, MEK5 (Homo sapiens, UniProt Q13163); conditions: read-out: %Inhibition by 10 μM SPA70
T40 construct: purchased DiscoverX (Ambit Biosciences) KINOMEscan
Method in brief: as §1

[41] = target: T41, DMPK (Homo sapiens, UniProt Q09013); conditions: read-out: %Inhibition by 10 μM SPA70
T41 construct: purchased DiscoverX (Ambit Biosciences) KINOMEscan
Method in brief: as §1

[42] = target: T42, RIPK2 (Homo sapiens, UniProt O43353); conditions: read-out: %Inhibition by 10 μM SPA70
T42 construct: purchased DiscoverX (Ambit Biosciences) KINOMEscan
Method in brief: as §1

[43] = read-out: %Inhibition by 10 μM SPA70

T28 sequence (P07333 20-972): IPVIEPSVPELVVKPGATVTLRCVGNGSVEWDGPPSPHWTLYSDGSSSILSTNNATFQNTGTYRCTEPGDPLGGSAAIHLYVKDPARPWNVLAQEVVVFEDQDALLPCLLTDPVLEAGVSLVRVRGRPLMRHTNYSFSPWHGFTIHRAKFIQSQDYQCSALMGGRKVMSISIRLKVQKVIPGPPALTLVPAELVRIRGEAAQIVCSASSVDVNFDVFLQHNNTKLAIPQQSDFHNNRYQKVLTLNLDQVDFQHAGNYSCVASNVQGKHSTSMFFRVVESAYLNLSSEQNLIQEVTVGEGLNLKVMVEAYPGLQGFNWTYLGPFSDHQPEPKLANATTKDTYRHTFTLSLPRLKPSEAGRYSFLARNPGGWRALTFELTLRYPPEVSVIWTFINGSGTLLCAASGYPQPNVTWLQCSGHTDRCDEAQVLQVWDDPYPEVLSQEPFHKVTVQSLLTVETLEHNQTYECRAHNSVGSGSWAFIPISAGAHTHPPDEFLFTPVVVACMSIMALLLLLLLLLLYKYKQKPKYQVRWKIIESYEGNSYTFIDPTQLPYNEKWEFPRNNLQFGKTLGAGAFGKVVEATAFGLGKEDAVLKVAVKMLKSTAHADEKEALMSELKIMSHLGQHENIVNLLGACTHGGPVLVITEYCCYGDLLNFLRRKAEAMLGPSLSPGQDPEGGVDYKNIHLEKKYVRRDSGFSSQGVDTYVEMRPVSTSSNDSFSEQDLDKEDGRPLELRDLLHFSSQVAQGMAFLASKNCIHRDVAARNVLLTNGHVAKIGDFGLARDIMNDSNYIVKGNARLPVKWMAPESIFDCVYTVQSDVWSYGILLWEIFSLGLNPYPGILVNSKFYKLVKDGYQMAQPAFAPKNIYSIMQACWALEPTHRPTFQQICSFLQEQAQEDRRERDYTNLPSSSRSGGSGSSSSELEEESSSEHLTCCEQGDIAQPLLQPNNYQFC
T6 sequence (P49841 whole entry): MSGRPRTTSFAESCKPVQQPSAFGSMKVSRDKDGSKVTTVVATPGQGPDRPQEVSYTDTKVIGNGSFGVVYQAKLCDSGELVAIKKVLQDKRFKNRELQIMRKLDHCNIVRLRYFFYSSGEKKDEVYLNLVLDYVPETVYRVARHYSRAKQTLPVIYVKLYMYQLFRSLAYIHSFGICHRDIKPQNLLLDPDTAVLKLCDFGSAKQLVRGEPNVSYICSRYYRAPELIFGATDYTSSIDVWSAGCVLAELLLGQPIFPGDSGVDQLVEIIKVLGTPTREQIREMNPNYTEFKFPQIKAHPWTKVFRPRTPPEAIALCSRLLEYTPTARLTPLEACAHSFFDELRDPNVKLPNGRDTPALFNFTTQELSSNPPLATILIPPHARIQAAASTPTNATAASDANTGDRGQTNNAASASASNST
T38 sequence (O43283 whole entry): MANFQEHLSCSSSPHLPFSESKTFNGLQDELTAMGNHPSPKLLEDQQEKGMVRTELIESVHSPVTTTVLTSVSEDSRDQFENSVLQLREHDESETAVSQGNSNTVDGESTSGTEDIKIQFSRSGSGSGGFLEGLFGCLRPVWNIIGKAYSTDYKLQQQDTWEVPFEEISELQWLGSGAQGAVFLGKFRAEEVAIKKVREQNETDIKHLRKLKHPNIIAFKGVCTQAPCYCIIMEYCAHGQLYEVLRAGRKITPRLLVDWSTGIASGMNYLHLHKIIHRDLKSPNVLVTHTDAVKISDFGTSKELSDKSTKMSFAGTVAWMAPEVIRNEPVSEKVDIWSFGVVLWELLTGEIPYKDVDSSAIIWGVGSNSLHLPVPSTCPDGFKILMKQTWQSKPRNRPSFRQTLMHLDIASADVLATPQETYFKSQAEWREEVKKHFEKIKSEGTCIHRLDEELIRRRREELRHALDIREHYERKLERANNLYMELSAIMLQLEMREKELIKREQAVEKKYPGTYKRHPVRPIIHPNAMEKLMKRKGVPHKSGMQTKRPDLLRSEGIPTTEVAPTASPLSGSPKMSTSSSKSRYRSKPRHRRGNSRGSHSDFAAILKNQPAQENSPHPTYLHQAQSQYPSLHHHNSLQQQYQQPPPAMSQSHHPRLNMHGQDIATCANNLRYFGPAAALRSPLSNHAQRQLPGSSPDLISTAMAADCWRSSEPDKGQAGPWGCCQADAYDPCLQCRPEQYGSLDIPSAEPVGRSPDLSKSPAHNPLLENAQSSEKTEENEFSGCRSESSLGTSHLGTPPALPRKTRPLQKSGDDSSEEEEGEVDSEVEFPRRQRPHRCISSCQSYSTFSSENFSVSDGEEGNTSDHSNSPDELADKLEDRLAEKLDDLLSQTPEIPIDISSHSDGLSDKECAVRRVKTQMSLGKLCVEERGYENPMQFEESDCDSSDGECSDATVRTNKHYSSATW
T14 sequence (Q05655 whole entry): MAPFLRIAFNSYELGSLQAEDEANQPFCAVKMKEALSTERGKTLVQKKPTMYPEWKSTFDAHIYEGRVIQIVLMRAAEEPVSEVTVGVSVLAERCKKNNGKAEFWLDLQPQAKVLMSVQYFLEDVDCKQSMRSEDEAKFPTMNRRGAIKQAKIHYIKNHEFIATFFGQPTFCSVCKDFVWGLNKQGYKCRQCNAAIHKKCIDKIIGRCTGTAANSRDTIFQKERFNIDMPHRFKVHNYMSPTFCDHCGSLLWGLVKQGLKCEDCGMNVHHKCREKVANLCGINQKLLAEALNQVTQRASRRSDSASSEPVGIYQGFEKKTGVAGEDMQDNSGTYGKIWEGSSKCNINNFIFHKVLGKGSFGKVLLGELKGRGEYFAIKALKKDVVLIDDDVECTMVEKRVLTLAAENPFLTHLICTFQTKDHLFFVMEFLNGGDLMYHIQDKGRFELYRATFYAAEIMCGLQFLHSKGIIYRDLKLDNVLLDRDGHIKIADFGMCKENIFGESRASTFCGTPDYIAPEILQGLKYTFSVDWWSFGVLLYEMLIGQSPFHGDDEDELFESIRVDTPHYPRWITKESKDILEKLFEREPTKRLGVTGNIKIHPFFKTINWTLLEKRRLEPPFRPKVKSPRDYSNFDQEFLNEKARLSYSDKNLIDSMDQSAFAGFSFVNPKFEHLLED
T32 sequence (O15111 whole entry): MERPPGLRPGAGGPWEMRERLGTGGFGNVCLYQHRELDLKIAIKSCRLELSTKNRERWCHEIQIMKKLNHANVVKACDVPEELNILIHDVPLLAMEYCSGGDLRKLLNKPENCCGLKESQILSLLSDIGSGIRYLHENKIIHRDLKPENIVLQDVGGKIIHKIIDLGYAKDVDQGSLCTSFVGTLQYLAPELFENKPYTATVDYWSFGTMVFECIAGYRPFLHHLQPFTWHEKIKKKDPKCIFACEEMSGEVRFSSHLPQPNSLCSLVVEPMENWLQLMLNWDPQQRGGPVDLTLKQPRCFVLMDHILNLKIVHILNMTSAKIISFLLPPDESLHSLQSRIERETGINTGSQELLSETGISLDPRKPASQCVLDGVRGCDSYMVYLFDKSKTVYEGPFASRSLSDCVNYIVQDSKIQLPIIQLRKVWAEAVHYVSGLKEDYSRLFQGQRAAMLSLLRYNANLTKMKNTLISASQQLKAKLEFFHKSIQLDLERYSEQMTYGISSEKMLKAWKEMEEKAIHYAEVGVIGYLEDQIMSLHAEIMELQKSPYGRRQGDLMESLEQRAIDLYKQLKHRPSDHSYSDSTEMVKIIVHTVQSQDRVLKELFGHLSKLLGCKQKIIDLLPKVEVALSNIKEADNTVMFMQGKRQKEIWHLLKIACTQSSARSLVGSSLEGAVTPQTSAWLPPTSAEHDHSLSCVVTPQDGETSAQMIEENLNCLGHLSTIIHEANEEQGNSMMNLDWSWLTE
T13 sequence (Q9Y4K4 whole entry): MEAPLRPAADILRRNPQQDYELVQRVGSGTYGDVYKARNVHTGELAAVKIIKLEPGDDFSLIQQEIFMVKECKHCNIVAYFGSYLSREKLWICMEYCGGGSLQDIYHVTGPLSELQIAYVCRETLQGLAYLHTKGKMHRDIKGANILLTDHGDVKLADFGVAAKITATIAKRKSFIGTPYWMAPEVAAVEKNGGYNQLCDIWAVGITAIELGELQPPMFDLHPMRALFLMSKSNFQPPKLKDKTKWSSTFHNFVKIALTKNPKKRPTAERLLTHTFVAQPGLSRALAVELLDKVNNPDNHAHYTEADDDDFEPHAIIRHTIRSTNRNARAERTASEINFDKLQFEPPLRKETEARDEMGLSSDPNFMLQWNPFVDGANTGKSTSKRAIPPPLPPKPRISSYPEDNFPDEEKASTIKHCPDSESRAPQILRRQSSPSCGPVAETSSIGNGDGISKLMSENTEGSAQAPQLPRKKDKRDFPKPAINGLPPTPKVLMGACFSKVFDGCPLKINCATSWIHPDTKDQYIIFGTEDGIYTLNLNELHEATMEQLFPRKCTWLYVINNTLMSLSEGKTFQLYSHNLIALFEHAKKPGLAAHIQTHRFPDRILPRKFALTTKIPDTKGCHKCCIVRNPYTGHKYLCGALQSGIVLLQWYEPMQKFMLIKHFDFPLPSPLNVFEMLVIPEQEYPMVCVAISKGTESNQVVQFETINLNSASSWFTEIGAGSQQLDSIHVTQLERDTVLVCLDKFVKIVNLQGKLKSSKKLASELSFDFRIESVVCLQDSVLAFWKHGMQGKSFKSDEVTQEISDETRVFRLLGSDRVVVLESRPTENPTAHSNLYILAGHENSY
T30 sequence (O94921 whole entry): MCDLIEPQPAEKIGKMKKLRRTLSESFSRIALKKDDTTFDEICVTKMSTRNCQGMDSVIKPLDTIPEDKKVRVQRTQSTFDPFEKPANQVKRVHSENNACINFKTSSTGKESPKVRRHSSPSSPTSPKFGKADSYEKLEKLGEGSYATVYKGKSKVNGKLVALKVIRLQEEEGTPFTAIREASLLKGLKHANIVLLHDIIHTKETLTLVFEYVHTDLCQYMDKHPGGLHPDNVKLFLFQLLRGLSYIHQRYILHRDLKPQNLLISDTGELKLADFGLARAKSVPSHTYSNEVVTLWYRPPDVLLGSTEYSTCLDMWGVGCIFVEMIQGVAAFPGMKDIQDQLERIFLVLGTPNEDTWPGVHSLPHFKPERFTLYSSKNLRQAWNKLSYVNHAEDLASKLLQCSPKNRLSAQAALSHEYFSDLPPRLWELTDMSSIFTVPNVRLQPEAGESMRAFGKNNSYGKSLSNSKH

## COc1ccc(OC)c(-n2nnc(S(=O)(=O)c3ccc(C(C)(C)C)cc3)c2C)c1 [SPA70]
[1]
  inhibition at 10 µM: 0%
[2]
  inhibition at 10 µM: 0%
[3]
  inhibition at 10 µM: 20%
[4]
  inhibition at 10 µM: 8%
[5]
  inhibition at 10 µM: 11%
[6]
  %Inhibition by 10 μM SPA70: not inhibited
[6]; [43]
  inhibition at 10 µM: 0%
[7]
  inhibition at 10 µM: 2%
[8]
  inhibition at 10 µM: 11%
[9]
  %Inhibition by 10 μM SPA70: 10%
[10]
  inhibition at 10 µM: 1%
[11]
  %Inhibition by 10 μM SPA70: 2%
[12]
  inhibition at 10 µM: 0%
[13]
  inhibition at 10 µM: 0%
[14]
  inhibition at 10 µM: 5%
[15]
  inhibition at 10 µM: 0%
[16]
  %Inhibition by 10 μM SPA70: 0%
[17]
  inhibition at 10 µM: 0%
[18]
  inhibition at 10 µM: 2%
[19]
  %Inhibition by 10 μM SPA70: 0%
[20]
  inhibition at 10 µM: 0%
[21]
  %Inhibition by 10 μM SPA70: 9%
[22]
  inhibition at 10 µM: 0%
[23]
  inhibition at 10 µM: 0%
[24]
  inhibition at 10 µM: 0%
[25]
  inhibition at 10 µM: 0%
[26]
  inhibition at 10 µM: 0%
[27]
  inhibition at 10 µM: 0%
[28]; 11-point 3-fold serial dilutions starting from 30 µM
  Kd: 4 µM
[28]; [43]
  inhibition at 10 µM: 63%
[29]
  inhibition at 10 µM: 0%
[30]
  %Inhibition by 10 μM SPA70: 0%
[31]
  inhibition at 10 µM: 0%
[32]
  inhibition at 10 µM: 10%
[33]
  inhibition at 10 µM: 46%
[34]
  inhibition at 10 µM: 0%
[35]
  inhibition at 10 µM: 0%
[36]
  inhibition at 10 µM: 6%
[37]
  inhibition at 10 µM: 0%
[38]
  %Inhibition by 10 μM SPA70: 0%
[39]
  inhibition at 10 µM: 0%
[40]
  inhibition at 10 µM: 8%
[41]
  inhibition at 10 µM: 0%
[42]
  inhibition at 10 µM: 0%
